From EPA's ToxValDB 9.5 come the findings set out here.

≈ marks a conversion by molar mass, not a printed value.

Data set [1] has as its system Oryctolagus sp.
The subject of data set [2] is Anas platyrhynchos. The note with it: short-term; duration: 5 days; oral; feed; mortality.
Data set [3] concerns Rattus norvegicus.
The subject of data set [4] is Pontoscolex corethrurus. Conditions: acute; mortality.
The test system of data set [5] is Daphnia magna. Conditions: mortality.
Data set [6] concerns Gallus gallus. The note with it: subchronic; duration: 56 days; oral; diet; F; no effects.
Data set [7] relates to Homo sapiens. Conditions: clinical.
Data set [8] relates to Bibionidae. The note with it: chronic/long-term; duration: 28 days; development.
The test system of data set [9] is Cyprinus carpio.
The test system of data set [10] is Mus musculus. The note with it: repeat dose other.
The test system of data set [11] is Canidae. The note with it: chronic, oral, Dog Other.
Data set [12] has as its system Colinus virginianus. Conditions: for LD50: acute, oral, mortality.
Setting [13] is: subchronic, duration: 90 days, oral.

For `NC(Cc1ncn[nH]1)C(=O)O` (stereo not drawn) [1,2,4-Triazole-3-alanine], the NOAEL in data set [1] (developmental, development) worked out at 30 mg/kg-day; in data set [3] (chronic), 100 mg/kg-day; in data set [3] (developmental, development) it was 100 mg/kg-day. The same molecule came in with an LC50 in data set [2] of more than 1340 mg/kg-day. The molecule also yielded an LD50 in [3] (acute, oral, mortality) of more than 5000 mg/kg-day.
`CCc1nccnc1C(C)=O` [1-(3-Ethylpyrazinyl)ethan-1-one] came in with an LC50 in data set [4] of 360 mg/kg.
For `CSCSSC` [2,3,5-Trithiahexane], the NOEL in [3] (subchronic, duration: 13 weeks, oral, diet) was 0.3 mg/kg-day. The molecule further came in with an NOAEL in data set [3] (setting [13]) of 0.23 mg/kg-day and an NOAEL under setting [13] of 0.23 mg/kg-day.
For the molecule `CCc1nccnc1CC` [2,3-Diethylpyrazine], in data set [4], the LC50 amounted to 236 mg/kg.
`Cc1cc(SC(=O)CC(C)C)c(C)o1` [2,5-Dimethyl-3-thioisovalerylfuran] yielded a no-observed-adverse-effect level (NOAEL) in data set [3] (subchronic, duration: 90 days) of 0.73 mg/kg-day and an NOAEL (subchronic, duration: 90 days) of 0.73 mg/kg-day.
As to `CCc1occc(=O)c1O` [2-Ethyl-3-hydroxy-4-pyrone], the NOAEL (repeat dose other) came to 200 mg/kg-day.
With `Cc1csc(C(C)C)n1` [2-Isopropyl-4-methylthiazole], the LC50 in data set [4] is 194 mg/kg; in [5] (acute), 9 µg/mL (≈ 63.7 µM).
`COc1nccnc1C` [2-Methoxy-3-methylpyrazine] had an LC50 in data set [4] of 245 mg/kg.
On to `c1csc(SSc2cccs2)c1` [2-Thienyl disulfide], for which the NOAEL in [3] (subchronic, duration: 90 days) was determined as 0.29 mg/kg-day and the NOAEL (repeat dose other) was determined as 0.29 mg/kg-day.
Consider `CCCC/C=C\CCO` [3-Octen-1-ol, (3Z)-], for which the LC50 in data set [4] was 194 mg/kg.
For the molecule `CC(=O)C(C)Sc1ccoc1C` (stereo not drawn) [3-[(2-Methylfuran-3-yl)sulfanyl]butan-2-one], the NOAEL in [3] (subchronic, duration: 90 days, oral, diet) was 3.76 mg/kg-day and the NOAEL (subchronic, duration: 90 days) is 3.76 mg/kg-day.
With `CCOC(=O)/C(C)=C/C=C/C(C)=C/C=C/C=C(C)/C=C/C=C(C)/C=C/C1=C(C)CCCC1(C)C` [8'-Apo-beta, psi-carotenoid acid, ethyl ester], in data set [6], the LEL was determined as 80 mg/kg-day. Further, in data set [3] (subchronic, histopathology: nonneoplastic), the no-observed-adverse-effect level (NOAEL) was 3 mg/kg-day.
`CN1CCC[C@H]1c1cccnc1` [(-)-Nicotine] gave an LOAEL in data set [7] (injection, intravenous, clinical signs) of 0.0035 mg/kg-day.
Turning to `CC(=O)[O-].CC(=O)[O-].O.O.O.O.[Co+2]` [Cobalt(II) acetate tetrahydrate], in [7] (duration: 22 days, oral, hematological), the LOAEL came to 1 mg/kg-day.
Consider `COCCOC(=O)C(C#N)(C(=O)c1ccccc1C(F)(F)F)c1ccc(C(C)(C)C)cc1` (stereo not drawn) [Cyflumetofen], for which the NOEC was not below 0.064 mg/L in [8]; not below 0.072 mg/L in [9] (chronic/long-term, duration: 28 days, growth); 0.065 mg/L in [5] (chronic/long-term, duration: 21 days). In [9] (acute, duration: 96 hours, mortality), this molecule gave an LC50 of more than 0.54 µg/mL.
On to `C=C(C)[C@H]1CC=C(C)CC1` [D-Limonene], for which the NOAEL in data set [10] (gross pathology) stood at 250 mg/kg-day; in data set [10] (injection, intraperitoneal), 215 mg/kg-day; in [3] (repeat dose other, histopathology: nonneoplastic), 250 mg/kg-day.
Take `O=C(NC(=O)c1c(F)cccc1F)Nc1ccc(Cl)cc1` [Diflubenzuron]: the NOAEL in [11] (duration: 1 years, hematological) turned out to be 10 mg/kg-day. Besides, the LD50 is more than 2000 mg/kg in data set [3] (acute, dermal, mortality) and more than 4640 mg/kg in data set [3] (acute, oral, mortality). The LC50 in data set [3] (acute, duration: 4 hours, inhalation, mortality) is more than 2.5 µg/mL.
With `Fc1ccc([C@@]2(Cn3cncn3)O[C@@H]2c2ccccc2Cl)cc1` [Epoxiconazole], the LD50 is more than 907 mg/kg in [12] (diet); more than 2000 mg/kg in data set [12]; 3160 mg/kg in data set [3] (acute, mortality). In data set [12] (reproduction developmental), the NOEL is 1 mg/kg-day. In addition, the NOAEL in data set [3] (reproduction developmental) amounted to 2.3 mg/kg-day.
`OC[C@@H](O)[C@@H](O)CO` [Erythritol] gave an NOAEL in data set [7] (duration: 27 months, oral, drinking water, clinical signs) of 710 mg/kg-day.
Turning to `O=S(=O)([O-])c1ccc(N=Nc2c(O)ccc3cc(S(=O)(=O)[O-])ccc23)cc1.[Na+].[Na+]` [FD&C Yellow 6], the NOAEL came to 500 mg/kg-day in data set [11] (duration: 7 years, F, no effects); 375 mg/kg-day in [3] (reproduction developmental, duration: 28 days, oral, diet, body weight); 500 mg/kg-day in [3] (subchronic, duration: 90 days, oral, diet, M/F, histopathology: nonneoplastic).
In turn, `NC=O` [Formamide] gave an NOAEL in data set [1] (reproduction developmental, duration: 13 days, oral, gavage, F, New Zealand, reproduction) of 34 mg/kg-day.
`CCOP(=O)=O.CCOP(=O)=O.CCOP(=O)=O.[Al+3]` [Fosetyl aluminum]: the NOEC in data set [12] (reproduction developmental, reproduction) came to 216 mg/kg-day. The molecule also gave a no-observed-adverse-effect level (NOAEL) in [3] (short-term, histopathology: nonneoplastic) of 500 mg/kg-day.

Broadly, the NOAEL is the highest dose or exposure tested at which no adverse effect was seen. One may read the LOAEL as the lowest dose or exposure tested at which an adverse effect was seen.
